# Data: ChEMBL document CHEMBL1153884, “Oligonucleotide-polyamine conjugates: influence of length and position of 2'-attached polyamines on duplex stability and antisense effect” (2009)
# Columns and labels:
# [1] = Antisense effect in human 607B cells assessed as down-regulation of bcl2 expression at 100 nM after 48 hrs by Western blot analysis relative to control; format: functional
# Nucleic Acid [2] = experiment: Duplex stability of RNA counter strand assessed as melting temperature; format: nucleic-acid assay
# Nucleic Acid [3] = experiment: Duplex stability of DNA counter strand assessed as melting temperature; format: nucleic-acid assay
Tm (Nucleic Acid [2]),Tm (Nucleic Acid [3]),SMILES,Activity [1]
53.6 °C,71.6 °C,Cc1cn([C@H]2C[C@H](OP(O)(=S)OC[C@H]3O[C@@H](n4ccc(N)nc4=O)[C@H](O)[C@@H]3OP(O)(=S)OC[C@H]3O[C@@H](n4cc(C)c(=O)[nH]c4=O)C[C@@H]3O)[C@@H](COP(O)(=S)O[C@H]3[C@@H](O)[C@H](n4ccc(N)nc4=O)O[C@@H]3COP(O)(=S)O[C@H]3[C@@H](O)[C@H](n4ccc(N)nc4=O)O[C@@H]3COP(O)(=S)O[C@H]3[C@@H](O)[C@H](n4ccc(N)nc4=O)O[C@@H]3COP(O)(=S)O[C@H]3[C@@H](O)[C@H](n4cnc5c(N)ncnc54)O[C@@H]3COP(O)(=S)O[C@H]3[C@@H](O)[C@H](n4cnc5c(=O)[nH]c(N)nc54)O[C@@H]3COP(O)(=S)O[C@H]3[C@@H](O)[C@H](n4ccc(N)nc4=O)O[C@@H]3COP(O)(=S)O[C@H]3[C@@H](O)[C@H](n4cnc5c(=O)[nH]c(N)nc54)O[C@@H]3COP(O)(=S)O[C@H]3C[C@H](n4cc(C)c(=O)[nH]c4=O)O[C@@H]3COP(O)(=S)O[C@H]3[C@@H](O)[C@H](n4cnc5c(=O)[nH]c(N)nc54)O[C@@H]3COP(O)(=S)O[C@H]3[C@@H](O)[C@H](n4ccc(N)nc4=O)O[C@@H]3COP(O)(=S)O[C@H]3[C@@H](O)[C@H](n4cnc5c(=O)[nH]c(N)nc54)O[C@@H]3COP(O)(=S)O[C@H]3[C@@H](O)[C@H](n4ccc(N)nc4=O)O[C@@H]3COP(O)(=S)O[C@H]3[C@@H](O)[C@H](n4ccc(N)nc4=O)O[C@@H]3COP(O)(=S)O[C@H]3[C@@H](O)[C@H](n4cnc5c(N)ncnc54)O[C@@H]3COP(O)(=S)O[C@H]3[C@@H](NCCCNCCCCNCCCNCCCN)[C@H](n4ccc(=O)[nH]c4=O)O[C@@H]3CO)O2)c(=O)[nH]c1=O (stereo partly specified),18.5%
50.1 °C,67.6 °C,Cc1cn([C@H]2C[C@H](OP(O)(=S)OC[C@H]3O[C@@H](n4ccc(N)nc4=O)[C@H](O)[C@@H]3OP(O)(=S)OC[C@H]3O[C@@H](n4cc(C)c(=O)[nH]c4=O)C[C@@H]3O)[C@@H](COP(O)(=S)O[C@H]3[C@@H](O)[C@H](n4ccc(N)nc4=O)O[C@@H]3COP(O)(=S)O[C@H]3[C@@H](O)[C@H](n4ccc(N)nc4=O)O[C@@H]3COP(O)(=S)O[C@H]3[C@@H](O)[C@H](n4ccc(N)nc4=O)O[C@@H]3COP(O)(=S)O[C@H]3[C@@H](O)[C@H](n4cnc5c(N)ncnc54)O[C@@H]3COP(O)(=S)O[C@H]3[C@@H](O)[C@H](n4cnc5c(=O)[nH]c(N)nc54)O[C@@H]3COP(O)(=S)O[C@H]3[C@@H](O)[C@H](n4ccc(N)nc4=O)O[C@@H]3COP(O)(=S)O[C@H]3[C@@H](O)[C@H](n4cnc5c(=O)[nH]c(N)nc54)O[C@@H]3COP(O)(=S)O[C@H]3C[C@H](n4cc(C)c(=O)[nH]c4=O)O[C@@H]3COP(O)(=S)O[C@H]3[C@@H](O)[C@H](n4cnc5c(=O)[nH]c(N)nc54)O[C@@H]3COP(O)(=S)O[C@H]3[C@@H](O)[C@H](n4ccc(N)nc4=O)O[C@@H]3COP(O)(=S)O[C@H]3[C@@H](O)[C@H](n4cnc5c(=O)[nH]c(N)nc54)O[C@@H]3COP(O)(=S)O[C@H]3[C@@H](O)[C@H](n4ccc(N)nc4=O)O[C@@H]3COP(O)(=S)O[C@H]3[C@@H](O)[C@H](n4ccc(N)nc4=O)O[C@@H]3COP(O)(=S)O[C@H]3[C@@H](O)[C@H](n4cnc5c(N)ncnc54)O[C@@H]3COP(O)(=S)O[C@H]3[C@@H](NCCCCN)[C@H](n4ccc(=O)[nH]c4=O)O[C@@H]3CO)O2)c(=O)[nH]c1=O (stereo partly specified),70.6%
53.1 °C,71.4 °C,Cc1cn([C@H]2C[C@H](OP(O)(=S)OC[C@H]3O[C@@H](n4cnc5c(N)ncnc54)[C@H](O)[C@@H]3OP(O)(=S)OC[C@H]3O[C@@H](n4ccc(N)nc4=O)[C@H](O)[C@@H]3OP(O)(=S)OC[C@H]3O[C@@H](n4ccc(N)nc4=O)[C@H](O)[C@@H]3OP(O)(=S)OC[C@H]3O[C@@H](n4cnc5c(=O)[nH]c(N)nc54)[C@H](O)[C@@H]3OP(O)(=S)OC[C@H]3O[C@@H](n4ccc(N)nc4=O)[C@H](O)[C@@H]3OP(O)(=S)OC[C@H]3O[C@@H](n4cnc5c(=O)[nH]c(N)nc54)[C@H](O)[C@@H]3OP(O)(=S)OC[C@H]3O[C@@H](n4cc(C)c(=O)[nH]c4=O)C[C@@H]3OP(O)(=S)OC[C@H]3O[C@@H](n4cnc5c(=O)[nH]c(N)nc54)[C@H](O)[C@@H]3OP(O)(=S)OC[C@H]3O[C@@H](n4ccc(N)nc4=O)[C@H](O)[C@@H]3OP(O)(=S)OC[C@H]3O[C@@H](n4cnc5c(=O)[nH]c(N)nc54)[C@H](O)[C@@H]3OP(O)(=S)OC[C@H]3O[C@@H](n4cnc5c(N)ncnc54)[C@H](O)[C@@H]3OP(O)(=S)OC[C@H]3O[C@@H](n4ccc(N)nc4=O)[C@H](O)[C@@H]3OP(O)(=S)OC[C@H]3O[C@@H](n4ccc(N)nc4=O)[C@H](O)[C@@H]3OP(O)(=S)OC[C@H]3O[C@@H](n4ccc(N)nc4=O)[C@H](O)[C@@H]3OP(O)(=S)OC[C@H]3O[C@@H](n4cc(C)c(=O)[nH]c4=O)C[C@@H]3OP(O)(=S)OC[C@H]3O[C@@H](n4ccc(N)nc4=O)[C@H](O)[C@@H]3OP(O)(=S)OC[C@H]3O[C@@H](n4cc(C)c(=O)[nH]c4=O)C[C@@H]3O)[C@@H](CO)O2)c(=O)[nH]c1=O (stereo partly specified),25%
63 °C,80 °C,Cc1cn([C@H]2C[C@H](OP(=O)(O)OC[C@H]3O[C@@H](n4cnc5c(N)ncnc54)[C@H](O)[C@@H]3OP(=O)(O)OC[C@H]3O[C@@H](n4ccc(N)nc4=O)[C@H](O)[C@@H]3OP(=O)(O)OC[C@H]3O[C@@H](n4ccc(N)nc4=O)[C@H](O)[C@@H]3OP(=O)(O)OC[C@H]3O[C@@H](n4cnc5c(=O)[nH]c(N)nc54)[C@H](O)[C@@H]3OP(=O)(O)OC[C@H]3O[C@@H](n4ccc(N)nc4=O)[C@H](O)[C@@H]3OP(=O)(O)OC[C@H]3O[C@@H](n4cnc5c(=O)[nH]c(N)nc54)[C@H](O)[C@@H]3OP(=O)(O)OC[C@H]3O[C@@H](n4cc(C)c(=O)[nH]c4=O)C[C@@H]3OP(=O)(O)OC[C@H]3O[C@@H](n4cnc5c(=O)[nH]c(N)nc54)[C@H](O)[C@@H]3OP(=O)(O)OC[C@H]3O[C@@H](n4ccc(N)nc4=O)[C@H](O)[C@@H]3OP(=O)(O)OC[C@H]3O[C@@H](n4cnc5c(=O)[nH]c(N)nc54)[C@H](O)[C@@H]3OP(=O)(O)OC[C@H]3O[C@@H](n4cnc5c(N)ncnc54)[C@H](O)[C@@H]3OP(=O)(O)OC[C@H]3O[C@@H](n4ccc(N)nc4=O)[C@H](O)[C@@H]3OP(=O)(O)OC[C@H]3O[C@@H](n4ccc(N)nc4=O)[C@H](O)[C@@H]3OP(=O)(O)OC[C@H]3O[C@@H](n4ccc(N)nc4=O)[C@H](O)[C@@H]3OP(=O)(O)OC[C@H]3O[C@@H](n4cc(C)c(=O)[nH]c4=O)C[C@@H]3OP(=O)(O)OC[C@H]3O[C@@H](n4ccc(N)nc4=O)[C@H](O)[C@@H]3OP(=O)(O)OC[C@H]3O[C@@H](n4ccc(=O)[nH]c4=O)[C@H](NCCCNCCCCNCCCN)[C@@H]3O)[C@@H](CO)O2)c(=O)[nH]c1=O,–
